What all share (experiment): NCI-60 cell line screen, 48 h
Experiment [1] has as its system NCI-H522 lung.
The subject of experiment [2] is PC-3 prostate.
Experiment [3] relates to HCT-116 colon.
In experiment [4] the test system is SW-620 colon.
Experiment [5] deals with M14 melanoma.
Experiment [6] concerns NCI-H226 lung.
Experiment [7] has as its system COLO 205 colon.
In experiment [8] the test system is IGROV1 ovarian.
The test system of experiment [9] is MOLT-4 leukemia.
For experiment [10], the system named is MALME-3M melanoma.

Structures are written as SMILES.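 Compound exposure: 48 hours, 5 concentrations, 96-well plates. Here, GI50 denotes the concentration required for 50% inhibition of growth. The concentration for full growth arrest is given as TGI.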 Some results are limits rather than exact numbers.

Consider `Cc1nccc2c3ccc(OCc4cn(-c5ccc(Cl)cc5)nn4)cc3n(CCCc3ccccc3)c12`, for which the GI50 in experiment [1] was greater than 33.3 µM; in experiment [2] it was 2.42 µM; in experiment [3], 2.14 µM; in experiment [4], 2.2 µM; in experiment [5], 0.616 µM; in experiment [6] it was 1.72 µM. The GI50 is 4.22 µM in experiment [7], 6.93 µM in [8], 6.97 µM in experiment [9] and 0.745 µM in experiment [10]. The TGI in experiment [1] is greater than 33.3 µM; in experiment [2] it was 16.6 µM; in experiment [3], greater than 33.3 µM; in experiment [4], greater than 33.3 µM; in [5], 1.26 µM; in experiment [6], 9.12 µM. Besides, the TGI in [7] is greater than 33.3 µM; in experiment [8] it was greater than 33.3 µM; in experiment [9], greater than 33.3 µM; in experiment [10], 2.79 µM.

As for `CS(=O)(=O)Nc1cccc(-c2cc(-c3ccccc3Cl)c(C#N)c(N)n2)c1`, the GI50 is 0.294 µM in experiment [1]; 0.531 µM in experiment [2]; 0.448 µM in experiment [3]; 0.425 µM in experiment [4]; 0.464 µM in experiment [5]; 10.2 µM in [6]. Further, the GI50 is 0.472 µM in experiment [7], 0.769 µM in experiment [8], 0.894 µM in [9] and 3.23 µM in [10]. Moreover, the TGI in experiment [1] worked out at 3.89 µM; in experiment [2], 14.1 µM; in experiment [3], 11.8 µM; in experiment [4], 16.7 µM; in [5], 14.6 µM; in [6], 32.3 µM. Besides, the TGI in experiment [7] is 4.88 µM; in experiment [8] it was 22.6 µM; in [9] it was greater than 51.5 µM; in experiment [10] it was 25 µM.

Turning to `CCN(CC)c1ccc2c(c1)Oc1nc(N)c(C#N)c(N)c1C2Sc1ccc(OC)cc1` (stereo unspecified), the GI50 in [1] is 1.79 µM; in experiment [2], 1.71 µM; in experiment [3] it was 1.65 µM; in [4], 1.9 µM; in experiment [5] it was 1.77 µM; in experiment [6], 1.82 µM. Also, the GI50 in experiment [7] was 1.88 µM; in experiment [8] it was 1.9 µM; in experiment [9], 2.37 µM; in experiment [10], 1.82 µM. Moreover, the TGI in experiment [1] is 3.38 µM; in experiment [2], 3.38 µM; in [3], 3.12 µM; in experiment [4] it was 3.62 µM; in experiment [5], 3.33 µM; in experiment [6] it was 3.55 µM. Also, the TGI in experiment [7] was 3.65 µM; in [8] it was 3.9 µM; in experiment [9], 6.21 µM; in [10], 3.45 µM.

As for `N#CSc1c[nH]c2ccc(/C=C/C(=O)/C=C(/C=C/c3ccc4[nH]cc(SC#N)c4c3)OB(F)F)cc12`, the GI50 is 0.212 µM in [1]; 0.241 µM in experiment [2]; 0.0887 µM in experiment [3]; 0.333 µM in [4]; 0.374 µM in experiment [5]; 2.18 µM in experiment [6]. Also, the GI50 in [7] was 0.652 µM; in experiment [8], 0.352 µM; in experiment [9], 0.306 µM; in experiment [10] it was 0.261 µM. In addition, the TGI in [1] was 0.653 µM; in [2], 1.95 µM; in [3], 0.375 µM; in experiment [4], 1.16 µM; in experiment [5] it was 1.68 µM; in [6] it was 5.62 µM. The TGI in experiment [7] was determined as 3.52 µM; in [8] it was 1.37 µM; in [9], 1.62 µM; in [10] it was 0.845 µM.

Consider `CC(=O)N1c2ccccc2NC2=C(C(=O)N(Cc3ccccc3)C2(C)C)C1c1ccco1` (stereo unspecified), for which the GI50 in experiment [1] was 0.871 µM; in experiment [2], 0.687 µM; in [3] it was 0.692 µM; in [4], 0.58 µM; in [5], 0.748 µM; in experiment [6], greater than 25 µM. For the same compound, the GI50 in experiment [7] was 0.742 µM; in experiment [8] it was 0.893 µM; in [9], 0.786 µM; in experiment [10] it was 1.2 µM. Moreover, the TGI in experiment [1] is greater than 25 µM; in experiment [2] it was greater than 25 µM; in experiment [3], greater than 25 µM; in experiment [4], greater than 25 µM; in experiment [5] it was 5.31 µM; in [6], greater than 25 µM. Further, the TGI in [7], in [8], in [9] and in experiment [10] was greater than 25 µM each time.

Regarding `O=C(O)c1ccc(S(=O)(=O)Nc2ccc3oc4c(c3c2)C(=O)CCC4)cc1`, the GI50 in [1], in experiment [2], in [3], in [4], in experiment [5] and in experiment [6] was greater than 100 µM each time. For the same compound, the GI50 in [7], in [8], in experiment [9] and in [10] was greater than 100 µM throughout. Also, the TGI in experiment [1], in [2], in [3], in experiment [4], in experiment [5] and in experiment [6] was greater than 100 µM each time. Moreover, the TGI in experiment [7], in experiment [8], in experiment [9] and in [10] was greater than 100 µM in each case.

In the case of `C[C@@H](CN1CC(=O)NC(=O)C1)N1CC(=O)NC(=O)C1`, the TGI in experiment [1] amounted to 518 µM; in [2] it was 1450 µM; in [3], 750 µM; in experiment [4] it was 1030 µM; in experiment [5], 1160 µM; in [6], 485 µM. The TGI in experiment [7] stood at 296 µM; in [8], 1440 µM; in [9] it was 821 µM; in [10] it was 1100 µM. Also, the GI50 in experiment [6] is 90.7 µM.

Regarding `O=C(O)c1cc2ccccc2c(N=Nc2cc(C(F)(F)F)ccc2Cl)c1O`, the TGI in experiment [1], in [2], in experiment [3], in experiment [4], in experiment [5] and in [6] was greater than 100 µM each time. Also, the TGI in [7], in experiment [8], in experiment [9] and in experiment [10] was greater than 100 µM in each case.

As for `COC(=O)NC1(NC(=O)OC)NC(=O)c2cc(OC)c(OC)c(OC)c2N1`, the TGI in experiment [1] is 41.5 µM; in experiment [2], 72.3 µM; in [3], greater than 100 µM; in experiment [4], greater than 100 µM; in [5] it was greater than 100 µM; in experiment [6] it was greater than 100 µM. For the same compound, the TGI in [7], in [8], in experiment [9] and in [10] was greater than 100 µM in each case.

With `COc1cc2c(cc1OC)C(OC)N(C)c1c-2ccc2cc3c(cc12)OCO3` (stereo unspecified), the TGI is 0.766 µM in [1]; greater than 75 µM in experiment [2]; 7.63 µM in experiment [3]; 8.35 µM in experiment [4]; 25.6 µM in experiment [5]; 4.3 µM in [6]. Besides, the TGI in [7] was determined as 2.95 µM; in experiment [8], 3.02 µM; in [9], 16.1 µM; in experiment [10], 20 µM.

In the case of `CCCCCCCCCc1cc[n+](CC(=O)c2ccc([N+](=O)[O-])cc2)cc1`, the GI50 is 1.36 µM in experiment [1]; 0.552 µM in experiment [2]; 0.373 µM in [3]; 0.403 µM in [4]; 0.553 µM in experiment [5]; 0.535 µM in experiment [6]. The GI50 in [7] is 0.344 µM; in experiment [8], 1.66 µM; in [9], 2.1 µM; in [10], 1.41 µM. In addition, the TGI came to 2.87 µM in [1]; 1.88 µM in experiment [2]; 1.43 µM in experiment [3]; 1.63 µM in experiment [4]; 2.14 µM in experiment [5]; 2.15 µM in experiment [6]. The TGI was 1.45 µM in [7], 3.29 µM in experiment [8], 5.27 µM in experiment [9] and 3.03 µM in [10].

`Cc1cc(O)c(C2=NN(c3ccc(S(N)(=O)=O)cc3)C(c3ccc(N(C)C)cc3)C2)c(C)c1Cl` (stereo unspecified): the GI50 is 18.6 µM in experiment [1]; 9.21 µM in experiment [2]; 7.6 µM in [3]; 18.4 µM in experiment [4]; 14 µM in [5]; 13.4 µM in experiment [6]. Also, the GI50 is 12.3 µM in experiment [7], 18.3 µM in experiment [8], 12.7 µM in [9] and 14.8 µM in experiment [10]. In addition, the TGI in [1] was found to be 48.4 µM; in [2] it was 23.9 µM; in experiment [3], 21.1 µM; in experiment [4], 37.8 µM; in [5], 29.4 µM; in experiment [6], 29.4 µM. The TGI in [7] stood at 25.4 µM; in [8] it was 59 µM; in experiment [9] it was 43.2 µM; in [10], 32.7 µM.

With `COc1cc2c3c(n(CCCNCCCNCCCNCCCN)c(=O)c2cc1OC)-c1cc2c(cc1C3=O)OCO2`, the GI50 in experiment [1] was 3.61 µM; in [2], 3.31 µM; in [3], 1.5 µM; in experiment [4], 2.18 µM; in experiment [5], 2.84 µM; in experiment [6] it was 2.92 µM. In addition, the GI50 in [7] is 1.49 µM; in [8] it was 3.72 µM; in experiment [9], 0.369 µM; in experiment [10], 0.318 µM. Also, the TGI in experiment [1] is greater than 100 µM; in experiment [2] it was 14.8 µM; in experiment [3], 3.13 µM; in [4], 13.9 µM; in experiment [5], 14.2 µM; in [6], 7.26 µM. Moreover, the TGI was greater than 100 µM in [7], greater than 100 µM in experiment [8], 2.57 µM in [9] and 1.29 µM in experiment [10].

On to `C=C1c2[nH]c3ccccc3c2C2C(CC)C1CCN2C` (stereo unspecified), for which the TGI in [1] was greater than 100 µM; in experiment [2], greater than 100 µM; in experiment [3], greater than 100 µM; in experiment [4], greater than 100 µM; in experiment [5], 67.6 µM; in experiment [6] it was greater than 100 µM. The TGI in experiment [7] was 58.9 µM; in experiment [8], greater than 100 µM; in experiment [9], greater than 100 µM; in experiment [10], 56.5 µM.

On to `CN1CCN(c2cc(C(=O)Nc3cc4cc(-c5cnn(C)c5)ccc4cn3)ccn2)CC1`, for which the GI50 in [1] was 0.0472 µM; in experiment [2] it was 0.314 µM; in experiment [3] it was 0.0376 µM; in [4], 0.0422 µM; in experiment [5], 0.22 µM; in experiment [6] it was 0.205 µM. The GI50 in [7] is 0.0673 µM; in experiment [8], 0.0581 µM; in experiment [9], 0.221 µM; in experiment [10] it was 0.155 µM. Further, the TGI in [1] stood at 0.327 µM; in [2], 31.4 µM; in [3], 11.4 µM; in experiment [4], 11.7 µM; in [5], 13.3 µM; in [6], 12 µM. Further, the TGI was found to be 0.494 µM in experiment [7], 3.3 µM in [8], 18 µM in experiment [9] and 0.584 µM in experiment [10].
